Experimental data as given in patent US8043631B2, “Tumor targeting drug-loaded particles” (priority 2005, dated 2011).

Legend:
[1] = tested on: peritoneal cancer; details: intraperitoneal administration; cited from earlier work
[2] = tested on: Histocultures of head and neck FaDu xenograft tumors; assay: Lipo-siRNA penetration into tumor histocultures with and without tumor priming; assay type: cell-based; details: paclitaxel 0.5 μM maintained for 48 hour, versus no priming
Experimental: Histocultures of head and neck FaDu xenograft tumors were maintained in vitro. Penetration of siRNA, formulated in cationic liposomes, was evaluated with and without tumor priming pretreatment. To facilitate detection, siRNA were labeled with green fluorescence (siGLO) and lipids were labeled with a red fluorescence marker. […] In the overlay picture, the red and green fluorescent images are combined. […] The bars indicate a length of 100 μm.

[3] = tested on: stage T0 and T1 bladder tumors obtained from human patients; details: cited from earlier work
[4] = tested on: human head and neck FaDu xenografts; assay: nano-sized latex bead delivery and dispersion in tumors after tumor priming; assay type: in vivo, Mice; details: paclitaxel 40 milligrams per kilogram intravenously, beads 48 hours later, tumors excised 24 hours after
Experimental: Mice were implanted subcutaneously with human head and neck FaDu xenografts, and divided in two groups. […] The control group (without tumor priming) only received the vehicle. Forty-eight hours later, animals received an intravenous injection of red fluorescent latex beads of 100, or 200 nm diameter. Tumors were excised 24 hours after the injection of the beads and examined. […] The percentage of area in tumors occupied by particles was calculated as (total number of deep-derived pixels) divided by (total number of pixels per microscopic field), which provided a measurement of the dispersion area. The average bead concentration in tumors was the average fluorescence intensity, which was calculated as (mean intensity of bead-derived pixels multiplied by total number of bead-derived pixels) divided by (total number of pixels per microscopic field). Eight tumors were used per data point.

[5] = tested on: Human RT4 bladder transitional bladder cancer cells; assay: cytotoxicity in RT4 cells, immediate and delayed effect, sulforhodamine B assay; assay type: cell-based; details: immediate effect

Compound | extension of survival time in patients [1] | penetration of siGLO-loaded liposomes after paclitaxel priming [2] | IC50 [3] [nM] | delivery of latex beads to tumors after tumor priming [4] | maximal inhibition ([5]; 48 hours) [%] | maximal inhibition ([5]; 96 hours) [%]
N.N.[Cl][Pt][Cl] [cisplatin] | about 20% |  |  |  |  | 
CC(=O)O[C@H]1C(=O)[C@@]2(C)[C@H]([C@H](OC(=O)c3ccccc3)[C@]3(O)C[C@H](OC(=O)[C@H](O)[C@@H](NC(=O)c4ccccc4)c4ccccc4)C(C)=C1C3(C)C)[C@]1(OC(C)=O)CO[C@@H]1C[C@@H]2O [paclitaxel] |  | at least five-fold deeper | 1200 | enhanced the delivery of the 100- and 200-nm latex beads | 60 | 84
